Data published in US6407081B1, “Method for inhibiting cytokine production by cells” (Previsan AG, priority 1997, dated 2002).

Columns and labels:
[1] = tested on: Peripheral mononuclear blood cells (PMBC); assay: Cytotoxic effects on the PBMC cultures of Examples 1 and 2; format: cell-based, human; details: at the ADA concentrations reducing cytokine production in Examples 1 and 2
IL-2 [2] = assay: IL-2 production by purified T lymphocytes (Example 3); format: cell-based, human; details: mean of 2 donors
Experimental: (§1) PBMC from three healthy donors are purified by density gradient […] (LymphoPrep). The T lymphocytes are obtained from 15.10^6 PBMC incubated for 20 to 30 minutes in a waterbath at 37° C. with 0.8 ml of a mixture of LymphoKwik® (One Lambda, Inc., CA, USA). This latter substance is a mixture of complement and specific antibody for antigen units of the cell membrane which lyses the unwanted cells (B lymphocytes, monocytes, etc.). The cells are centrifuged and then washed twice.
(§2) These cultures are treated with various concentrations of ADA.
(§3) In Examples 3 and 4, the results are stated as a percentage taking the medium without ADA as 100%. The concentrations corresponding to 100% are respectively 90,000 pg/ml for IL-2, 1100 pg/ml for IL-5, 1900 pg/ml for IFN-γ and 2870 pg/ml for TNF-α. The results are the mean of independent ELISA assays.

IFN-γ [3] = assay: Interferon-γ production by purified T lymphocytes (Example 3); format: cell-based, human; details: mean of 3 donors
Experimental: as §1, §2, §3

IFN-γ [4] = assay: Interferon-γ production by purified CD4 T lymphocytes stimulated by PMA + anti-CD28 (Example 4); format: cell-based, human; details: for IFN-γ in % relative to control: purified CD4 T lymphocytes, PMA + anti-CD28, mean of 2 donors
Experimental: (§4) Purified CD4 T lymphocytes (90% purity) stimulated by PMA (phorbol myristate acetate)+anti-CD28 antibodies from healthy donors are treated with various concentrations of ADA.
as §3

IL-4 = assay: In vivo serum IL-4 release after anti-CD3 145-2C11 mAb (Example 5); parameters: species or system BALB/C mice; details: ADA 100 mg/kg single injection one day before 145-2C11 mAb; sera at 2, 4, 8, 24 h; FIG. 2
Experimental: A single intraparenteral injection of azodicarbon-amide (ADA) at a dose of 100 mg/kg bodyweight or corresponding carrier is made into BALB/C mice (Harlan, Zeist, Netherlands) one day before intraparenteral inoculation of 25 μg of hamster 145-2C11 mAb, an anti-mouse CD3 mAb which brings about massive in vivo activation of polyclonal T cells, resulting in systemic cytokine release. Sera are collected 2, 4, 8 and 24 hours after the anti-CD3 treatment and the cytokine (IL-2, IL-4) levels are determined by an ELISA test (Genzyme).
FIGS. 1 and 2 are graphs showing, on the y-axis, the quantities of IL-2 and IL-4 in the serum as a mean of 5 test animals. […] The empty bars show the results obtained with the carrier and the shaded bars show those obtained with prior ADA treatment.

skin allograft = assay: Skin allograft rejection (Example 6); format: in vivo, C57BL/6 mice; details: ADA 50 mg/kg daily injection vs carrier control; FIG. 3
Experimental: Skin grafts, which are well known to be highly dependent upon T cells, are prepared from the tails of four female C57BL/6. CH-2^bm12 mice (Jackson Laboratory, Bar Harbor, Me., USA). These grafts are grafted onto the sides of C57BL/6 mice (Harlan, Zeist, Netherlands). A dressing is applied around the hole. This dressing is removed 10 days later and the grafts are inspected daily. The test mice receive a daily intraparenteral injection of 50 mg/kg bodyweight of ADA and the controls receive an equivalent quantity of the corresponding carrier until acute rejection is observed.
On the graph in FIG. 3, survival of the skin graft is plotted, in %, on the y-axis, while the number of days since the transplant is plotted on the x-axis.

IL-2 [5] = assay: IL-2 production by purified CD4 T lymphocytes stimulated by PMA + anti-CD28 (Example 4); format: cell-based, human; details: for IL-2 in % relative to control: purified CD4 T lymphocytes, PMA + anti-CD28, mean of 2 donors
Experimental: as §4, §3

IL-5 [6] = assay: IL-5 production by PHA-activated PBMC, ELISA (Example 1); format: cell-based, human; details: for production of IL-5 inhibited, on average: average of five donors, PBMC; for IL-5 content as a percentage of the control: PHA-activated PBMC, 72 h
Experimental: Peripheral mononuclear blood cells (PMBC) from five healthy human donors are isolated in the conventional manner from 50 ml of their blood and then purified by density gradient centrifugation (Lymphoprep). The cells (5.10^6 cells/ml) are activated by 0.3 μg/ml of phytohaemagglutinin (PHA) and cultured for 72 hours at 37° C. in the presence of various concentrations of ADA (20, 10, 5, 1, 0.2 and 0.04 μg/ml). The culture medium consists of RPMI 1640 complemented with 10% foetal calf serum and glutamine and contains mercaptoethanol. The ADA solutions are prepared in dimethyl sulfoxide (DMSO), the working concentration of DMSO during the experiments being 0.1%. Said experiments are performed on 96 well plates (200 μl/well) and, once the plates have been centrifuged at 1500 revolutions per minute for 10 minutes, the supernatants are harvested and the IL-5 content thereof analysed by an ELISA immunoenzymatic assay.

IL-5 [7] = assay: IL-5 production by purified T lymphocytes (Example 3); format: cell-based, human; details: mean of 2 donors
Experimental: as §1, §2, §3

SMILES: NC(=O)N=NC(N)=O [ADA, azodicarbon-amide]
- cytotoxic effects [1]: no cytotoxic effects
- IL-2 in % relative to control (IL-2 [2]; ADA 1 μg/ml): 68 % relative to control
- IL-2 in % relative to control (IL-2 [2]; ADA 5 μg/ml): 27 % relative to control
- IL-2 in % relative to control (IL-2 [2]; ADA 10 μg/ml): 9 % relative to control
- IL-2 in % relative to control (IL-2 [2]; ADA 20 μg/ml): 3 % relative to control
- IFN-γ in % relative to control (IFN-γ [3]; ADA 1 μg/ml): 82 % relative to control
- IFN-γ in % relative to control (IFN-γ [3]; ADA 5 μg/ml): 34 % relative to control
- IFN-γ in % relative to control (IFN-γ [3]; ADA 10 μg/ml): 14 % relative to control
- IFN-γ in % relative to control (IFN-γ [3]; ADA 20 μg/ml): 4 % relative to control
- production of interferon-γ (IFN-γ [4]; 20 μg/ml of ADA, donors of Examples 3 and 4): inhibited
- IFN-γ in % relative to control (IFN-γ [4]; ADA 1 μg/ml): 73 % relative to control
- IFN-γ in % relative to control (IFN-γ [4]; ADA 5 μg/ml): 36 % relative to control
- IFN-γ in % relative to control (IFN-γ [4]; ADA 10 μg/ml): 15 % relative to control
- IFN-γ in % relative to control (IFN-γ [4]; ADA 20 μg/ml): 12 % relative to control
- release of IL-4 into serum (IL-4): significant reduction
- rejection of the skin allograft (skin allograft): significantly delayed
- IL-2 in % relative to control (IL-2 [5]; ADA 1 μg/ml): 82 % relative to control
- IL-2 in % relative to control (IL-2 [5]; ADA 5 μg/ml): 30 % relative to control
- IL-2 in % relative to control (IL-2 [5]; ADA 10 μg/ml): 18 % relative to control
- IL-2 in % relative to control (IL-2 [5]; ADA 20 μg/ml): 10 % relative to control
- secretion of IL-2 by lymphocytes (IL-2 [5]; concentrations lower than 20 μg/ml of ADA, Examples 3 and 4): Even lower concentrations inhibit
- production of IL-5 inhibited, on average (IL-5 [6]; 0.2 μg/ml of ADA): 45%
- production of IL-5 inhibited, on average (IL-5 [6]; 10 μg/ml of ADA): 80%
- production of IL-5 inhibited, on average (IL-5 [6]; 20 μg/ml of ADA): 90%
- IL-5 content as a percentage of the control (IL-5 [6]; ADA 0.04 μg/ml, Donor 1): 83 % of control
- IL-5 content as a percentage of the control (IL-5 [6]; ADA 0.04 μg/ml, Donor 2): 50 % of control
- IL-5 content as a percentage of the control (IL-5 [6]; ADA 0.04 μg/ml, Donor 3): 58 % of control
- IL-5 content as a percentage of the control (IL-5 [6]; ADA 0.04 μg/ml, Donor 4): 46 % of control
- IL-5 content as a percentage of the control (IL-5 [6]; ADA 0.04 μg/ml, Donor 5): 55 % of control
- IL-5 content as a percentage of the control (IL-5 [6]; ADA 0.04 μg/ml, Mean of donors): 58 % of control
- IL-5 content as a percentage of the control (IL-5 [6]; ADA 0.2 μg/ml, Donor 1): 54 % of control
- IL-5 content as a percentage of the control (IL-5 [6]; ADA 0.2 μg/ml, Donor 2): 42 % of control
- IL-5 content as a percentage of the control (IL-5 [6]; ADA 0.2 μg/ml, Donor 3): 63 % of control
- IL-5 content as a percentage of the control (IL-5 [6]; ADA 0.2 μg/ml, Donor 4): 57 % of control
- IL-5 content as a percentage of the control (IL-5 [6]; ADA 0.2 μg/ml, Donor 5): 58 % of control
- IL-5 content as a percentage of the control (IL-5 [6]; ADA 0.2 μg/ml, Mean of donors): 55 % of control
- IL-5 content as a percentage of the control (IL-5 [6]; ADA 1 μg/ml, Donor 1): 48 % of control
- IL-5 content as a percentage of the control (IL-5 [6]; ADA 1 μg/ml, Donor 2): 29 % of control
- IL-5 content as a percentage of the control (IL-5 [6]; ADA 1 μg/ml, Donor 3): 57 % of control
- IL-5 content as a percentage of the control (IL-5 [6]; ADA 1 μg/ml, Donor 4): 37 % of control
- IL-5 content as a percentage of the control (IL-5 [6]; ADA 1 μg/ml, Donor 5): 49 % of control
- IL-5 content as a percentage of the control (IL-5 [6]; ADA 1 μg/ml, Mean of donors): 44 % of control
- IL-5 content as a percentage of the control (IL-5 [6]; ADA 5 μg/ml, Donor 1): 44 % of control
- IL-5 content as a percentage of the control (IL-5 [6]; ADA 5 μg/ml, Donor 2): 2 % of control
- IL-5 content as a percentage of the control (IL-5 [6]; ADA 5 μg/ml, Donor 3): 23 % of control
- IL-5 content as a percentage of the control (IL-5 [6]; ADA 5 μg/ml, Donor 4): 31 % of control
- IL-5 content as a percentage of the control (IL-5 [6]; ADA 5 μg/ml, Donor 5): 34 % of control
- IL-5 content as a percentage of the control (IL-5 [6]; ADA 5 μg/ml, Mean of donors): 27 % of control
- IL-5 content as a percentage of the control (IL-5 [6]; ADA 10 μg/ml, Donor 1): 29 % of control
- IL-5 content as a percentage of the control (IL-5 [6]; ADA 10 μg/ml, Donor 2): 2 % of control
- IL-5 content as a percentage of the control (IL-5 [6]; ADA 10 μg/ml, Donor 3): 28 % of control
- IL-5 content as a percentage of the control (IL-5 [6]; ADA 10 μg/ml, Donor 4): 14 % of control
- IL-5 content as a percentage of the control (IL-5 [6]; ADA 10 μg/ml, Donor 5): 31 % of control
- IL-5 content as a percentage of the control (IL-5 [6]; ADA 10 μg/ml, Mean of donors): 21 % of control
- IL-5 content as a percentage of the control (IL-5 [6]; ADA 20 μg/ml, Donor 1): 9 % of control
- IL-5 content as a percentage of the control (IL-5 [6]; ADA 20 μg/ml, Donor 2): 2 % of control
- IL-5 content as a percentage of the control (IL-5 [6]; ADA 20 μg/ml, Donor 3): 26 % of control
- IL-5 content as a percentage of the control (IL-5 [6]; ADA 20 μg/ml, Donor 4): 5 % of control
- IL-5 content as a percentage of the control (IL-5 [6]; ADA 20 μg/ml, Donor 5): 7 % of control
- IL-5 content as a percentage of the control (IL-5 [6]; ADA 20 μg/ml, Mean of donors): 10 % of control
- IL-5 production, comparable tests in the absence of mercaptoethanol (IL-5 [6]; culture medium without mercaptoethanol, compared with Table 1): relatively similar results
- IL-5 in % relative to control (IL-5 [7]; ADA 1 μg/ml): 67 % relative to control
- IL-5 in % relative to control (IL-5 [7]; ADA 5 μg/ml): 60 % relative to control
- IL-5 in % relative to control (IL-5 [7]; ADA 10 μg/ml): 40 % relative to control
- IL-5 in % relative to control (IL-5 [7]; ADA 20 μg/ml): 16 % relative to control
